Test results taken from US20070117743A1, “New antitumoral compounds” (priority 2003, published 2007).
Where a SMILES comes first, the peptide text is derived from it. Bridges are numbered along the chain shown (N, C = ends). [ ]: non-standard residue; d: D form. The star is where a group is joined. d(aThr) = C[C@@H](O)[C@@H](N)C(=O)O; Hexanoyl(5-Me) = CC(C)CCCC(=O)*; dCha = N[C@H](CC1CCCCC1)C(=O)O; Orn = NCCC[C@H](N)C(=O)O; Dhb = C/C=C(\N)C(=O)O

Legend:
Type in all cases: cell-based, human
K-562 = assay: SRB colorimetric assay of cell growth and viability, K-562; conditions: 48 hours exposure; for CC50: read-out: LC50 K-562
IGROV-ET = assay: SRB colorimetric assay of cell growth and viability, IGROV-ET; conditions: 48 hours exposure; for CC50: read-out: LC50 IGROV-ET
IGROV-1 = assay: SRB colorimetric assay of cell growth and viability, IGROV-1; conditions: 48 hours exposure
SK-BR-3 = assay: SRB colorimetric assay of cell growth and viability, SK-BR-3; conditions: 48 hours exposure
PANC-1 = assay: SRB colorimetric assay of cell growth and viability, PANC-1; conditions: 48 hours exposure; for CC50: read-out: LC50 PANC-1
LoVo = assay: SRB colorimetric assay of cell growth and viability, LoVo; conditions: 48 hours exposure; for CC50: read-out: LC50 LOVO
HeLa-APL = assay: SRB colorimetric assay of cell growth and viability, HeLa-APL; conditions: 48 hours exposure; for CC50: read-out: LC50 HELA-APL
HeLa = assay: SRB colorimetric assay of cell growth and viability, HeLa; conditions: 48 hours exposure; for CC50: read-out: LC50 HELA
A-549 = assay: SRB colorimetric assay of cell growth and viability, A-549; conditions: 48 hours exposure; for GI50: read-out: GI50 A-549; for CC50: read-out: LC50 A-549
SK-MEL-28 = assay: SRB colorimetric assay of cell growth and viability, SK-MEL-28; conditions: 48 hours exposure; for CC50: read-out: LC50 MEL-28
DU-145 = assay: SRB colorimetric assay of cell growth and viability, DU-145; conditions: 48 hours exposure
HT-29 = assay: SRB colorimetric assay of cell growth and viability, HT-29; conditions: 48 hours exposure; for GI50: read-out: GI50 HT-29; for CC50: read-out: LC50 HT-29
LoVo-Dox = assay: SRB colorimetric assay of cell growth and viability, LoVo-Dox; conditions: 48 hours exposure; for CC50: read-out: LC50 LOVO-DOX
Procedure, shortened: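 Human tumor cells seeded at 5×10^3/well in RPMI 1640 10% FBS, attached 18 hours, then exposed 48 hours to compound (10 to 10^−8 μg/mL). TCA-fixed, SRB-stained, OD 490 nm; triplicates give GI, TGI and LC values.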

LNCaP = assay: SRB colorimetric assay of cell growth and viability, LNCaP; conditions: 48 hours exposure; for GI50: read-out: GI50 LN-caP; for CC50: read-out: LC50 LN-caP

Structure (SMILES): C/C=C1\NC(=O)[C@H](Cc2ccccc2)NC(=O)[C@@H](CC2CCCCC2)NC(=O)[C@@H](CC2CCCCC2)NC(=O)[C@H](NC(=O)[C@@H](CC2CCCCC2)NC(=O)[C@H](CCCN)NC(=O)[C@H]2CCCN2C(=O)[C@H](NC(=O)[C@@H](NC(=O)[C@@H](NC(=O)[C@H](NC(=O)CCCC(C)C)C(C)C)[C@@H](C)O)C(C)C)C(C)C)[C@@H](C)OC(=O)[C@H](C(C)C)NC1=O [Compound 11, [D-Cha^4, D-Cha^5, D-Cha^7]-KF] ({Hexanoyl(5-Me)}-[dV]TV[dV][dP][Orn][dCha][d(aThr)][dCha][dCha]F[Dhb]V; ester 8-C)
- GI50 (K-562): 1580 nM
- TGI K-562 (K-562): 2.56E−06 Molar
- CC50 (K-562): 4140 nM
- GI50 (IGROV-ET): 133 nM
- TGI IGROV-ET (IGROV-ET): 3.03E−07 Molar
- CC50 (IGROV-ET): 1290 nM
- GI50 (IGROV-1): 190 nM
- LC50 (concentration causing 50% net cell killing) (IGROV-1): 2990 nM
- TGI IGROV (IGROV-1): 5.67E−07 Molar
- GI50 (SK-BR-3): 106 nM
- LC50 (SK-BR-3): 599 nM
- TGI SK-BR-3 (SK-BR-3): 2.52E−07 Molar
- GI50 (PANC-1): 1430 nM
- TGI PANC-1 (PANC-1): 2.74E−06 Molar
- CC50 (PANC-1): 5250 nM
- GI50 (LoVo): 97.4 nM
- TGI LOVO (LoVo): 1.99E−07 Molar
- CC50 (LoVo): 406 nM
- GI50 (HeLa-APL): 211 nM
- TGI HELA-APL (HeLa-APL): 8.31E−07 Molar
- CC50 (HeLa-APL): 2320 nM
- GI50 (HeLa): 223 nM
- TGI HELA (HeLa): 8.93E−07 Molar
- CC50 (HeLa): 2550 nM
- TGI A-549 (A-549): 2.60E−07 Molar
- GI50 (A-549): 132 nM
- CC50 (A-549): 511 nM
- GI50 (SK-MEL-28): 455 nM
- TGI MEL-28 (SK-MEL-28): 1.28E−06 Molar
- CC50 (SK-MEL-28): 3030 nM
- GI50 (DU-145): 220 nM
- LC50 (concentration causing 50% net cell kill) (DU-145): 2640 nM
- TGI DU-145 (DU-145): 8.56E−07 Molar
- TGI HT-29 (HT-29): 1.91E−07 Molar
- GI50 (HT-29): 97.4 nM
- CC50 (HT-29): 377 nM
- GI50 (LoVo-Dox): 81.9 nM
- TGI LOVO-DOX (LoVo-Dox): 1.64E−07 Molar
- CC50 (LoVo-Dox): 326 nM
- TGI LN-caP (LNCaP): 1.40E−06 Molar
- GI50 (LNCaP): 645 nM
- CC50 (LNCaP): 3010 nM

Structure (SMILES): C/C=C1\NC(=O)[C@H](Cc2ccccc2)NC(=O)[C@@H](C(C)C)NC(=O)[C@@H](C(C)C)NC(=O)[C@H](NC(=O)[C@H](NC(=O)[C@H](CCCN)NC(=O)[C@H]2CCCN2C(=O)[C@H](NC(=O)[C@@H](NC(=O)[C@@H](NC(=O)[C@H](NC(=O)CCCC(C)C)C(C)C)[C@@H](C)O)C(C)C)C(C)C)C(C)C)[C@@H](C)OC(=O)[C@H](C(C)C)NC1=O [Compound 12, [D-Val^5, D-Val^7]-KF] ({Hexanoyl(5-Me)}-[dV]TV[dV][dP][Orn][dV][d(aThr)][dV][dV]F[Dhb]V; ester 8-C)
- GI50 (K-562): 3190 nM
- TGI K-562 (K-562): 5.46E−06 Molar
- CC50 (K-562): 6900 nM
- GI50 (IGROV-ET): 1790 nM
- TGI IGROV-ET (IGROV-ET): 2.97E−06 Molar
- CC50 (IGROV-ET): 4930 nM
- GI50 (IGROV-1): 1850 nM
- LC50 (concentration causing 50% net cell killing) (IGROV-1): 4930 nM
- TGI IGROV (IGROV-1): 3.01E−06 Molar
- GI50 (SK-BR-3): 1740 nM
- LC50 (SK-BR-3): 5380 nM
- TGI SK-BR-3 (SK-BR-3): 3.06E−06 Molar
- GI50 (PANC-1): 4670 nM
- TGI PANC-1 (PANC-1): 6.90E−06 Molar
- CC50 (PANC-1): 6900 nM
- GI50 (LoVo): 1260 nM
- TGI LOVO (LoVo): 2.28E−06 Molar
- CC50 (LoVo): 4130 nM
- GI50 (HeLa-APL): 3020 nM
- TGI HELA-APL (HeLa-APL): 6.01E−06 Molar
- CC50 (HeLa-APL): 6900 nM
- GI50 (HeLa): 1750 nM
- TGI HELA (HeLa): 2.98E−06 Molar
- CC50 (HeLa): 5070 nM
- TGI A-549 (A-549): 6.68E−06 Molar
- GI50 (A-549): 2170 nM
- CC50 (A-549): 6900 nM
- GI50 (SK-MEL-28): 1680 nM
- TGI MEL-28 (SK-MEL-28): 3.12E−06 Molar
- CC50 (SK-MEL-28): 5780 nM
- GI50 (DU-145): 1610 nM
- LC50 (concentration causing 50% net cell kill) (DU-145): 4920 nM
- TGI DU-145 (DU-145): 2.82E−06 Molar
- TGI HT-29 (HT-29): 2.51E−06 Molar
- GI50 (HT-29): 1290 nM
- CC50 (HT-29): 4880 nM
- GI50 (LoVo-Dox): 952 nM
- TGI LOVO-DOX (LoVo-Dox): 1.97E−06 Molar
- CC50 (LoVo-Dox): 4080 nM
- TGI LN-caP (LNCaP): 3.79E−08 Molar
- GI50 (LNCaP): 2800 nM
- CC50 (LNCaP): 5140 nM

Structure (SMILES): C/C=C1\NC(=O)[C@H](Cc2ccccc2)NC(=O)[C@@H](C(C)C)NC(=O)[C@@H]([C@@H](C)CC)NC(=O)[C@H](NC(=O)[C@H](NC(=O)[C@H](CCCN)NC(=O)[C@H]2CCCN2C(=O)[C@H](NC(=O)[C@@H](NC(=O)[C@@H](NC(=O)[C@H](NC(=O)CCCCCCCCCC)C(C)C)[C@@H](C)O)C(C)C)C(C)C)[C@@H](C)CC)[C@@H](C)OC(=O)[C@H](C(C)C)NC1=O [Compound 15, [Und^14]-KF]
- GI50 (K-562): 1150 nM
- TGI K-562 (K-562): 2.18E−06 Molar
- CC50 (K-562): 4100 nM
- GI50 (IGROV-ET): 235 nM
- TGI IGROV-ET (IGROV-ET): 8.41E−07 Molar
- CC50 (IGROV-ET): 3340 nM
- GI50 (IGROV-1): 158 nM
- LC50 (concentration causing 50% net cell killing) (IGROV-1): 1540 nM
- TGI IGROV (IGROV-1): 3.72E−07 Molar
- GI50 (SK-BR-3): 26.7 nM
- LC50 (SK-BR-3): 468 nM
- TGI SK-BR-3 (SK-BR-3): 7.43E−08 Molar
- GI50 (PANC-1): 1230 nM
- TGI PANC-1 (PANC-1): 2.28E−06 Molar
- CC50 (PANC-1): 4200 nM
- GI50 (LoVo): 117 nM
- TGI LOVO (LoVo): 2.67E−07 Molar
- CC50 (LoVo): 604 nM
- GI50 (HeLa-APL): 229 nM
- TGI HELA-APL (HeLa-APL): 8.47E−07 Molar
- CC50 (HeLa-APL): 3550 nM
- GI50 (HeLa): 120 nM
- TGI HELA (HeLa): 2.65E−07 Molar
- CC50 (HeLa): 588 nM
- TGI A-549 (A-549): 3.39E−07 Molar
- GI50 (A-549): 143 nM
- CC50 (A-549): 1690 nM
- GI50 (SK-MEL-28): 169 nM
- TGI MEL-28 (SK-MEL-28): 4.45E−07 Molar
- CC50 (SK-MEL-28): 2040 nM
- GI50 (DU-145): 162 nM
- LC50 (concentration causing 50% net cell kill) (DU-145): 1040 nM
- TGI DU-145 (DU-145): 3.53E−07 Molar
- TGI HT-29 (HT-29): 2.70E−07 Molar
- GI50 (HT-29): 127 nM
- CC50 (HT-29): 574 nM
- GI50 (LoVo-Dox): 40.8 nM
- TGI LOVO-DOX (LoVo-Dox): 1.65E−07 Molar
- CC50 (LoVo-Dox): 478 nM
- TGI LN-caP (LNCaP): 1.44E−06 Molar
- GI50 (LNCaP): 529 nM
- CC50 (LNCaP): 3480 nM
